What all share (test): relative viability (nuclei count vs DMSO), 5 days (fraction); higher = more cells survive
Compound in the test “Alpelisib + Luminespib”: Cc1nc(NC(=O)N2CCC[C@H]2C(N)=O)sc1-c1ccnc(C(C)(C)C(F)(F)F)c1 [Alpelisib] + CCNC(=O)c1noc(-c2cc(C(C)C)c(O)cc2O)c1-c1ccc(CN2CCOCC2)cc1 [Luminespib] (partner 0.01 µM)
Summed up: (§1)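 Relative viability is defined as nuclei in treated wells over nuclei in vehicle wells. Duplicate plates were run and medians reported. Lung cancer cell lines in 1536-well plates were dosed by pin tool one day after seeding, with one drug or with a fixed anchor-drug dose plus five library-drug doses (not always all listed) in √10 steps, and nuclei were counted after 5 days.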

Compound in the test “OSI-027 + Alpelisib”: COc1cccc2cc(-c3nc([C@H]4CC[C@H](C(=O)O)CC4)n4ncnc(N)c34)[nH]c12 [OSI-027] + Cc1nc(NC(=O)N2CCC[C@H]2C(N)=O)sc1-c1ccnc(C(C)(C)C(F)(F)F)c1 [Alpelisib] (partner 2 µM)
The gist of the method: as §1

Compound in the test “Alpelisib + Lapatinib”: Cc1nc(NC(=O)N2CCC[C@H]2C(N)=O)sc1-c1ccnc(C(C)(C)C(F)(F)F)c1 [Alpelisib] + CS(=O)(=O)CCNCc1ccc(-c2ccc3ncnc(Nc4ccc(OCc5cccc(F)c5)c(Cl)c4)c3c2)o1 [Lapatinib] (partner 2 µM)
Summed up:
as §1

Compound in the test “Vemurafenib + Trametinib”: CCCS(=O)(=O)Nc1ccc(F)c(C(=O)c2c[nH]c3ncc(-c4ccc(Cl)cc4)cc23)c1F [Vemurafenib] + CC(=O)Nc1cccc(-n2c(=O)n(C3CC3)c(=O)c3c(Nc4ccc(I)cc4F)n(C)c(=O)c(C)c32)c1 [Trametinib] (partner 0.02 µM)
Summed up: as §1

As to NCI-H1944, the relative viability was 0.644 in the test with Alpelisib + Luminespib (first compound 0.04 µM); 0.739 with Alpelisib + Luminespib (first compound 0.1265 µM); 0.706 with Alpelisib + Luminespib (first compound 0.4 µM); 0.456 with Alpelisib + Luminespib (first compound 1.265 µM); 0.275 with Alpelisib + Luminespib (first compound 4 µM); 0.855 in the test with OSI-027 + Alpelisib (first compound 0.01 µM). Further, the relative viability with OSI-027 + Alpelisib (first compound 0.03162 µM) was determined as 0.796; with OSI-027 + Alpelisib (first compound 0.1 µM), 0.764; in the test with OSI-027 + Alpelisib (first compound 0.3162 µM) it was 0.607; with OSI-027 + Alpelisib (first compound 1 µM), 0.301; with Alpelisib + Lapatinib (first compound 0.04 µM), 0.815; in the test with Alpelisib + Lapatinib (first compound 0.1265 µM), 1.04. Also, the relative viability with Alpelisib + Lapatinib (first compound 0.4 µM) came out at 0.763; with Alpelisib + Lapatinib (first compound 1.265 µM), 0.621; with Alpelisib + Lapatinib (first compound 4 µM) it was 0.451; with Vemurafenib + Trametinib (first compound 0.03162 µM), 0.453; with Vemurafenib + Trametinib (first compound 0.3162 µM), 0.41; with Vemurafenib + Trametinib (first compound 1 µM) it was 0.423.
H3255: the relative viability in the test with Alpelisib + Luminespib (first compound 0.04 µM) amounted to 0.896; with Alpelisib + Luminespib (first compound 0.1265 µM) it was 0.765; with Alpelisib + Luminespib (first compound 0.4 µM), 1.17; with Alpelisib + Luminespib (first compound 1.265 µM), 0.733; with Alpelisib + Luminespib (first compound 4 µM), 0.625; in the test with OSI-027 + Alpelisib (first compound 0.01 µM) it was 0.589. In addition, the relative viability with OSI-027 + Alpelisib (first compound 0.03162 µM) was 0.731; in the test with OSI-027 + Alpelisib (first compound 0.1 µM), 0.537; in the test with OSI-027 + Alpelisib (first compound 0.3162 µM), 0.503; with OSI-027 + Alpelisib (first compound 1 µM), 0.376; with Alpelisib + Lapatinib (first compound 0.04 µM), 0.242; with Alpelisib + Lapatinib (first compound 0.1265 µM) it was 0.215. Besides, the relative viability with Alpelisib + Lapatinib (first compound 0.4 µM) is 0.259; with Alpelisib + Lapatinib (first compound 1.265 µM), 0.203; with Alpelisib + Lapatinib (first compound 4 µM), 0.197; with Vemurafenib + Trametinib (first compound 0.03162 µM), 0.589; with Vemurafenib + Trametinib (first compound 0.3162 µM), 0.652; with Vemurafenib + Trametinib (first compound 1 µM) it was 0.645.
NCI-H2087: the relative viability in the test with Alpelisib + Luminespib (first compound 0.04 µM) is 0.176; in the test with Alpelisib + Luminespib (first compound 0.1265 µM), 0.198; in the test with Alpelisib + Luminespib (first compound 0.4 µM), 0.174; in the test with Alpelisib + Luminespib (first compound 1.265 µM), 0.17; in the test with Alpelisib + Luminespib (first compound 4 µM), 0.159; with OSI-027 + Alpelisib (first compound 0.01 µM), 1.12. In addition, the relative viability in the test with OSI-027 + Alpelisib (first compound 0.03162 µM) amounted to 1.21; with OSI-027 + Alpelisib (first compound 0.1 µM), 0.947; with OSI-027 + Alpelisib (first compound 0.3162 µM), 0.625; with OSI-027 + Alpelisib (first compound 1 µM), 0.398; with Alpelisib + Lapatinib (first compound 0.04 µM), 1.02; with Alpelisib + Lapatinib (first compound 0.1265 µM), 0.978. The relative viability turned out to be 1.26 in the test with Alpelisib + Lapatinib (first compound 0.4 µM); 0.703 with Alpelisib + Lapatinib (first compound 1.265 µM); 0.97 with Alpelisib + Lapatinib (first compound 4 µM); 0.204 with Vemurafenib + Trametinib (first compound 0.03162 µM); 0.14 with Vemurafenib + Trametinib (first compound 0.1 µM); 0.292 with Vemurafenib + Trametinib (first compound 0.3162 µM). For the same cell line, in the test with Vemurafenib + Trametinib (first compound 1 µM), the relative viability came to 0.256.
Regarding RERF-LC-KJ, the relative viability with Alpelisib + Luminespib (first compound 0.04 µM) came out at 1.32; in the test with Alpelisib + Luminespib (first compound 0.1265 µM), 1.16; with Alpelisib + Luminespib (first compound 0.4 µM) it was 1.36; in the test with Alpelisib + Luminespib (first compound 1.265 µM), 0.917; with Alpelisib + Luminespib (first compound 4 µM) it was 1.03; in the test with OSI-027 + Alpelisib (first compound 0.01 µM), 0.698. Moreover, the relative viability stood at 0.793 in the test with OSI-027 + Alpelisib (first compound 0.03162 µM); 0.641 in the test with OSI-027 + Alpelisib (first compound 0.1 µM); 0.507 with OSI-027 + Alpelisib (first compound 0.3162 µM); 0.361 with OSI-027 + Alpelisib (first compound 1 µM); 0.795 with Alpelisib + Lapatinib (first compound 0.04 µM); 0.773 in the test with Alpelisib + Lapatinib (first compound 0.1265 µM). The relative viability came out at 0.867 with Alpelisib + Lapatinib (first compound 0.4 µM); 0.64 with Alpelisib + Lapatinib (first compound 1.265 µM); 0.735 with Alpelisib + Lapatinib (first compound 4 µM); 0.826 with Vemurafenib + Trametinib (first compound 0.03162 µM); 0.921 in the test with Vemurafenib + Trametinib (first compound 0.1 µM); 0.872 with Vemurafenib + Trametinib (first compound 0.3162 µM). The relative viability with Vemurafenib + Trametinib (first compound 1 µM) was 0.783.
Consider NCI-H2228, for which the relative viability was found to be 0.142 in the test with Alpelisib + Luminespib (first compound 0.04 µM); 0.132 in the test with Alpelisib + Luminespib (first compound 0.1265 µM); 0.0885 in the test with Alpelisib + Luminespib (first compound 0.4 µM); 0.101 in the test with Alpelisib + Luminespib (first compound 1.265 µM); 0.144 with Alpelisib + Luminespib (first compound 4 µM); 0.934 in the test with OSI-027 + Alpelisib (first compound 0.01 µM). Further, the relative viability with OSI-027 + Alpelisib (first compound 0.03162 µM) worked out at 0.808; with OSI-027 + Alpelisib (first compound 0.1 µM) it was 0.674; with OSI-027 + Alpelisib (first compound 1 µM) it was 0.546; with Alpelisib + Lapatinib (first compound 0.04 µM), 1.02; with Alpelisib + Lapatinib (first compound 0.1265 µM), 0.788; in the test with Alpelisib + Lapatinib (first compound 0.4 µM), 1.07. Further, the relative viability with Alpelisib + Lapatinib (first compound 1.265 µM) came to 0.794; in the test with Alpelisib + Lapatinib (first compound 4 µM), 0.486; with Vemurafenib + Trametinib (first compound 0.03162 µM) it was 0.357; with Vemurafenib + Trametinib (first compound 0.1 µM), 0.524; with Vemurafenib + Trametinib (first compound 0.3162 µM), 0.668; with Vemurafenib + Trametinib (first compound 1 µM) it was 0.439.

The record behind these values is the supplement of paper PMC10307832.
